# Structures can show the parent of a compound that is named as a salt. Marks after values point to notes of the source that are not given here.
# Legend:
# [1] = tested on: PCSK9 protein expression in HepG2 cells; assay: Western blot of PCSK9 protein in HepG2 cells, Compounds 162 and 163; assay type: cell-based, human; settings: 20 μM, time-dependent, FIG. 7
# Method: (§1) FIG. 7 is a Western blot analysis of LDLR and PCSK9 expression in HepG2 cells. HepG2 cells seeded in 12-well culture plates were cultured in 0.5% FBS MEM overnight. Compounds 162 and 163 at 20 μM were added to cells for the indicated times. Untreated and treated cells were harvested at the same indicated time points. Total cell lysates were isolated and 50 μg per sample was analyzed for LDLR and PCSK9 protein abundance by western blotting. The membrane was reprobed with anti-actin antibody to examine the equal loading of cell lysates.
# Recent studies have identified the liver secreted serine protease PCSK9 (proprotein convertase subtilisin type 9) as a natural inhibitor of LDLR protein expression that degrades hepatic LDLR protein, thus increasing circulating LDL-C levels.
# [2] = tested on: LDLR mRNA expression in HepG2 cells; assay: LDLR mRNA expression in HepG2 cells, Compounds 162 and 163, real-time RT-PCR (Example 13); assay type: cell-based, human; settings: FIGS. 6A and 6B
# Method: In FIG. 6A HepG2 cells were exposed to Compounds 162 and 163 at the indicated concentrations (x-axis) for 24 h and plotted against normalized LDLR mRNA levels (fold of control in absence of compound). In FIG. 6B, HepG2 cells were treated with 20 μM of each compound for the indicted times (x-axis) and plotted against normalized LDLR mRNA levels (fold of control at 24 h).
# The time- and dose-dependent effects of the enantiomers of Compound 127 (Compounds 162 and 163) on LDLR mRNA expression were examined using quantitative real-time RT-PCR assays (FIGS. 6A and 6B). HepG2 cells were treated with Compound 162 and Compound 163 at indicated concentrations for various times. Total RNA was isolated and […] was used to generate cDNA in a reaction containing random primers and M-MLV at 37° C. for 1 h in a volume of 25 μL. Real-time PCR was performed on the cDNA using MCEP REALPLEX 2 SYSTEM (Eppendorf) and Universal MasterMix (Applied Biosystems). Human LDLR and GAPDH Pre-Developed TaqMan Assay Reagents (Applied Biosystems) were used to assess the levels of mRNA expressions in HepG2. The levels of LDLR mRNA were normalized to that of GAPDH. Each RNA samples was assayed in triplicate. The fold activity was calculated by dividing mRNA abundance in compound treated cells with that of control.
# Hyperlipidemic Hamsters = assay: Serum lipids and biochemistry in hyperlipidemic hamsters on high fat high cholesterol diet, 2 weeks oral Compound 162; assay type: in vivo, Golden Syrian Hamsters; settings: for ALT / AST / BUN / Bil-T / Creatinine / Glucose / HDL-C / TC / TG: serum, HFHC feeding, n = 10
# Method: Male hamsters were fed a cholesterol-enriched diet for 14 days before the daily oral feeding of Compound 162 at 30, 60, and 100 mg/kg, or an equal volume of vehicle for 2-weeks. Serum samples were collected after 2 weeks of treatment and analyzed for TC, TG, and HDL-C. The data shown are mean±SEM of 10 hamsters per group (* p<0.05, ** p<0.01 compared to untreated control group).
# Male Golden Syrian Hamsters were used as an animal model to examine the in vivo effects of Compound 162 in plasma lipid levels. In one experiment, 40 male hamsters under a high fat and high cholesterol diet were divided into 4 groups of 10 hamsters per group. Group 1 was given vehicle only and groups 2-4 were given Compound 162 at 30, 60, and 100 mg/kg/day by an orogastric tube for 2 weeks. At the end of treatment, hamsters were sacrificed and blood and sera were collected to measure lipid levels and several critical parameters of liver function and kidney function.
# liver LDLR mRNA = assay: Liver LDLR mRNA in treated hamsters, quantitative real-time RT-PCR; assay type: in vivo, hamster; settings: 100 mg/kg, 2 weeks, 10 animals per group, p<0.001
# Method: To directly correlate the LDL-C and VLDL-C lowering effects of Compound 162 with its ability to upregulate hepatic LDLR expression and down-regulation of PCSK9, at the end of treatment, animals from vehicle and Compound 162 100 mg/kg treated groups were euthanized and levels of liver LDLR and PCSK9 mRNA were individually assessed by quantitative real-time RT-PCR using hamster specific probes. The results represent mean±SEM of 10 animals per group. The liver expression of LDLR mRNA was increased 1.7-fold over control by Compound 162 treatment (p<0.001). […] Thus, these in vivo data confirmed the in vitro effects of Compound 162 in upregulating LDLR mRNA while inhibiting PCSK9 mRNA expressions.
# [3] = tested on: cholesterol 7α-hydroxylase (CYP7A) mRNA; assay: Liver cholesterol 7α-hydroxylase (CYP7A) mRNA in treated hamsters, real-time PCR; assay type: in vivo, hamster; settings: 100 mg/kg, 2 weeks, p<0.01
# Excerpt: The conversion of cholesterol to bile acids by the liver and their subsequent excretion in the feces represent a major route for the elimination of sterol from the body. The cholesterol 7α-hydroxylase is the first and rate-limiting enzyme in the bile acid biosynthetic pathway. The measurement of the mRNA expression level of cholesterol 7α-hydroxylase (CYP7A) is widely used as a means to monitor bile acid synthesis in liver. To assess the effect of Compound 162 on liver bile acid synthesis, the mRNA levels of CYP7A were measured in vehicle and liver samples from hamsters treated with 100 mg/kg Compound 162 by real-time PCR as described above.
# [4] = tested on: LDLR protein expression in HepG2 cells; assay: Western blot of LDLR protein in HepG2 cells, Compounds 162 and 163; assay type: cell-based, human; settings: 20 μM, 16 or 24 hours, FIG. 7
# Method: as §1
# Chicken anti-LDLR was purchased from Abcam. HepG2 cells cultured in 60-mm dishes were incubated overnight in medium containing 0.5% fetal bovine serum prior to the addition of compounds at 20 μM concentration. After 16 or 24 hours of treatment, total cell lysate was isolated and 50 μg of protein was separated on SDS-PAGE and transferred to nitrocellulose membrane for immunoblotting with anti-LDLR.
# [5] = 100 mg/kg, 2 weeks, hamsters, FIG. 8
structure (smiles),measurement,setting,value
"COc1cc2c(cc1OC)C1Cc3ccc(OC)c(OS(=O)(=O)c4cccc(F)c4)c3CN1CC2 (single isomer, unassigned) [Compound 162, 2,3,10-Trimethoxy-5,6,7,8,13,13a-hexahydroisoquinolino[2,1-b]isoquinolin-9-yl 3-fluorobenzenesulfonate phosphate Salt (Enantiomer having positive optical rotation)]",PCSK9 cellular levels,[1],greatly decreased
same,LDLR mRNA expression,[2],upregulate LDLR mRNA expression
same,"LDLR mRNA expression, comparison of the enantiomers",[2],more active than Compound 163
same,increase of HDL-C,Hyperlipidemic Hamsters; [5],21%
same,reduction of serum TC,Hyperlipidemic Hamsters; [5],46%
same,reduction of serum TG,Hyperlipidemic Hamsters; [5],63.7%
same,"VLDL-C, LDL-C in pooled serum (HPLC lipoprotein profile)","Hyperlipidemic Hamsters; 30, 60, 100 mg/kg/day, hamsters fed the HFHC diet, FIGS. 9A and 9B",dose-dependently lowered
same,Blood glucose level,"Hyperlipidemic Hamsters; hamsters, 2 weeks",not changed
same,kidney function,"Hyperlipidemic Hamsters; hamsters, 2 weeks",improved
same,serum levels of AST and ALT versus control group,"Hyperlipidemic Hamsters; hamsters, 2 weeks",statistically lower
same,ALT,"Hyperlipidemic Hamsters; 30 mkg, 2 weeks",441 ± 401 IU/L
same,AST,"Hyperlipidemic Hamsters; 30 mkg, 2 weeks",202.0 ± 135 IU/L
same,BUN,"Hyperlipidemic Hamsters; 30 mkg, 2 weeks",4.5 ± 0.9 mmol/L
same,Bil-T,"Hyperlipidemic Hamsters; 30 mkg, 2 weeks",0.6 ± 1.0 µmol/L
same,Creatinine,"Hyperlipidemic Hamsters; 30 mkg, 2 weeks",17.8 ± 6.1* umol/L
same,Glucose,"Hyperlipidemic Hamsters; 30 mkg, 2 weeks",3.8 ± 0.8 mmol/L
same,HDL-C,"Hyperlipidemic Hamsters; 30 mkg, 2 weeks",3.9 ± 0.5 mmol/L
same,TC,"Hyperlipidemic Hamsters; 30 mkg, 2 weeks",19.0 ± 10.1 mmol/L
same,TG,"Hyperlipidemic Hamsters; 30 mkg, 2 weeks",9.4 ± 9.2 mmol/L
same,ALT,"Hyperlipidemic Hamsters; 60 mkg, 2 weeks",353 ± 250 IU/L
same,AST,"Hyperlipidemic Hamsters; 60 mkg, 2 weeks",151.5 ± 61 IU/L
same,BUN,"Hyperlipidemic Hamsters; 60 mkg, 2 weeks",5.0 ± 0.7 mmol/L
same,Bil-T,"Hyperlipidemic Hamsters; 60 mkg, 2 weeks",0.3 ± 0.3* umol/L
same,Creatinine,"Hyperlipidemic Hamsters; 60 mkg, 2 weeks",15.7 ± 4.2** umol/L
same,Glucose,"Hyperlipidemic Hamsters; 60 mkg, 2 weeks",5.0 ± 1.0 mmol/L
same,HDL-C,"Hyperlipidemic Hamsters; 60 mkg, 2 weeks",3.9 ± 0.5 mmol/L
same,TC,"Hyperlipidemic Hamsters; 60 mkg, 2 weeks",16.9 ± 8.7* mmol/L
same,TG,"Hyperlipidemic Hamsters; 60 mkg, 2 weeks",7.6 ± 8.1* mmol/L
same,ALT,"Hyperlipidemic Hamsters; 100 mkg, 2 weeks",376 ± 262 IU/L
same,AST,"Hyperlipidemic Hamsters; 100 mkg, 2 weeks",150.4 ± 42 IU/L
same,BUN,"Hyperlipidemic Hamsters; 100 mkg, 2 weeks",4.8 ± 0.7 mmol/L
same,Bil-T,"Hyperlipidemic Hamsters; 100 mkg, 2 weeks",0.2 ± 0.2* umol/L
same,Creatinine,"Hyperlipidemic Hamsters; 100 mkg, 2 weeks",15.3 ± 3.2** umol/L
same,Glucose,"Hyperlipidemic Hamsters; 100 mkg, 2 weeks",5.0 ± 1.3 mmol/L
same,HDL-C,"Hyperlipidemic Hamsters; 100 mkg, 2 weeks",4.2 ± 0.5** mmol/L
same,TC,"Hyperlipidemic Hamsters; 100 mkg, 2 weeks",16.4 ± 5.8*** mmol/L
same,TG,"Hyperlipidemic Hamsters; 100 mkg, 2 weeks",6.7 ± 5.2* mmol/L
same,liver expression of LDLR mRNA,liver LDLR mRNA,1.7 fold over control
same,CPY7A mRNA expression in liver versus vehicle control,[3],2.7 fold
same,LDLR mRNA and protein expression,[4],significantly enhance

# Source: US20110009628A1, “Compounds and Compositions for Modulating Lipid Levels and Methods of Preparing Same” (priority 2009, published 2011)
